In PubChem BioAssay AID1963837 (Molecular Pharmacology Branch, DTP, NCI, 2024):

The compounds below were run on 843126-344-R-J1-PDC complex spheroid viability (assay: Anticancer human tumor 843126-344-R-J1-PDC patient-derived melanoma cell line growth inhibition [POLQ]). Conditions: curve of first compound; second compound 0.0316 µM.
How it was run: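 Complex spheroid viability model combining PDC tumour cells with endothelial (HUVEC) and MSC stromal cells. Novobiocin, ART-558 or RP6685 were tested singly and in combination with standard and investigational anticancer drugs. Each was titrated in half-log steps from near clinical Cmax, or from 10 microM where Cmax was unknown.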
`C#Cc1c(F)ccc2cc(O)cc(-c3ncc4c(N5CC6CCC(C5)N6)nc(OCC56CCCN5CC(F)C6)nc4c3F)c12` (configuration not stated) + Cc1cccc(N(C)C(=O)C2C(O)CCN2c2nc(C)cc(C(F)(F)F)c2C#N)c1 was tested, and the IC50 was > 10 µM.
With `C=CC(=O)N1CCN(c2nc(=O)n(-c3c(C)ccnc3C(C)C)c3nc(-c4c(O)cccc4F)c(F)cc23)C(C)C1` (configuration not stated) + Cc1cccc(N(C)C(=O)C2C(O)CCN2c2nc(C)cc(C(F)(F)F)c2C#N)c1 the IC50 was > 10 µM.
With `CC(C)n1c(=O)n(C)c2cnc3cc(F)c(-c4ccc(OCCCN5CCCCC5)nc4)cc3c21` + Cc1cccc(N(C)C(=O)C2C(O)CCN2c2nc(C)cc(C(F)(F)F)c2C#N)c1 the IC50 was > 10 µM.
In the case of `CCc1cc2c(N3CCc4c(cc(Cn5ccnc5)cc4-c4cn(C)nc4C(F)(F)F)C3=O)cc(C)nc2c(OC)n1` + Cc1cccc(N(C)C(=O)C2C(O)CCN2c2nc(C)cc(C(F)(F)F)c2C#N)c1, the IC50 is reported as > 10 µM.
For `CCc1cc2c(N3CCc4c(cc(Cn5ccnc5)cc4-c4cn(C)nc4C(F)(F)F)C3=O)ccnc2c(OC)n1` + Cc1cccc(N(C)C(=O)C2C(O)CCN2c2nc(C)cc(C(F)(F)F)c2C#N)c1, the IC50 was > 10 µM.
For `COc1cc2cc(C(=O)CCC(=O)O)sc2cc1OC` + Cc1cccc(N(C)C(=O)C2C(O)CCN2c2nc(C)cc(C(F)(F)F)c2C#N)c1, the IC50 was > 10 µM.
`COc1ccc([C@@H](O)c2cc(-c3ncnc4cc(N5CCOCC5)ccc34)c(F)cc2Cl)nn1` + Cc1cccc(N(C)C(=O)C2C(O)CCN2c2nc(C)cc(C(F)(F)F)c2C#N)c1 was tested, and the IC50 was > 10 µM.
With `O=C(Nc1ccc(O)c(NS(=O)(=O)c2ccc(F)cc2)c1)c1ccc(-c2ccccc2)cc1` + Cc1cccc(N(C)C(=O)C2C(O)CCN2c2nc(C)cc(C(F)(F)F)c2C#N)c1 the IC50 was > 10 µM.

Same assay, conditions: curve of first compound; second compound 0.1 µM
In the case of `C#Cc1c(F)ccc2cc(O)cc(-c3ncc4c(N5CC6CCC(C5)N6)nc(OCC56CCCN5CC(F)C6)nc4c3F)c12` (configuration not stated) + Cc1cccc(N(C)C(=O)C2C(O)CCN2c2nc(C)cc(C(F)(F)F)c2C#N)c1, the IC50 is reported as > 10 µM.
In the case of `C=CC(=O)N1CCN(c2nc(=O)n(-c3c(C)ccnc3C(C)C)c3nc(-c4c(O)cccc4F)c(F)cc23)C(C)C1` (configuration not stated) + Cc1cccc(N(C)C(=O)C2C(O)CCN2c2nc(C)cc(C(F)(F)F)c2C#N)c1, the IC50 is reported as > 10 µM.
With `CC(C)n1c(=O)n(C)c2cnc3cc(F)c(-c4ccc(OCCCN5CCCCC5)nc4)cc3c21` + Cc1cccc(N(C)C(=O)C2C(O)CCN2c2nc(C)cc(C(F)(F)F)c2C#N)c1 the IC50 was > 10 µM.
In the case of `CCc1cc2c(N3CCc4c(cc(Cn5ccnc5)cc4-c4cn(C)nc4C(F)(F)F)C3=O)cc(C)nc2c(OC)n1` + Cc1cccc(N(C)C(=O)C2C(O)CCN2c2nc(C)cc(C(F)(F)F)c2C#N)c1, the IC50 is reported as > 10 µM.
With `CCc1cc2c(N3CCc4c(cc(Cn5ccnc5)cc4-c4cn(C)nc4C(F)(F)F)C3=O)ccnc2c(OC)n1` + Cc1cccc(N(C)C(=O)C2C(O)CCN2c2nc(C)cc(C(F)(F)F)c2C#N)c1 the IC50 was > 10 µM.
For `COc1cc2cc(C(=O)CCC(=O)O)sc2cc1OC` + Cc1cccc(N(C)C(=O)C2C(O)CCN2c2nc(C)cc(C(F)(F)F)c2C#N)c1, the IC50 was > 10 µM.
For `COc1ccc([C@@H](O)c2cc(-c3ncnc4cc(N5CCOCC5)ccc34)c(F)cc2Cl)nn1` + Cc1cccc(N(C)C(=O)C2C(O)CCN2c2nc(C)cc(C(F)(F)F)c2C#N)c1, the IC50 was > 10 µM.
`O=C(Nc1ccc(O)c(NS(=O)(=O)c2ccc(F)cc2)c1)c1ccc(-c2ccccc2)cc1` + Cc1cccc(N(C)C(=O)C2C(O)CCN2c2nc(C)cc(C(F)(F)F)c2C#N)c1 was tested, and the IC50 was > 10 µM.

Same assay, conditions: curve of first compound; second compound 0.316 µM
In the case of `C#Cc1c(F)ccc2cc(O)cc(-c3ncc4c(N5CC6CCC(C5)N6)nc(OCC56CCCN5CC(F)C6)nc4c3F)c12` (configuration not stated) + Cc1cccc(N(C)C(=O)C2C(O)CCN2c2nc(C)cc(C(F)(F)F)c2C#N)c1, the IC50 is reported as > 10 µM.
With `C=CC(=O)N1CCN(c2nc(=O)n(-c3c(C)ccnc3C(C)C)c3nc(-c4c(O)cccc4F)c(F)cc23)C(C)C1` (configuration not stated) + Cc1cccc(N(C)C(=O)C2C(O)CCN2c2nc(C)cc(C(F)(F)F)c2C#N)c1 the IC50 was > 10 µM.
For `CC(C)n1c(=O)n(C)c2cnc3cc(F)c(-c4ccc(OCCCN5CCCCC5)nc4)cc3c21` + Cc1cccc(N(C)C(=O)C2C(O)CCN2c2nc(C)cc(C(F)(F)F)c2C#N)c1, the IC50 was > 10 µM.
For `CCc1cc2c(N3CCc4c(cc(Cn5ccnc5)cc4-c4cn(C)nc4C(F)(F)F)C3=O)cc(C)nc2c(OC)n1` + Cc1cccc(N(C)C(=O)C2C(O)CCN2c2nc(C)cc(C(F)(F)F)c2C#N)c1, the IC50 was > 10 µM.
In the case of `CCc1cc2c(N3CCc4c(cc(Cn5ccnc5)cc4-c4cn(C)nc4C(F)(F)F)C3=O)ccnc2c(OC)n1` + Cc1cccc(N(C)C(=O)C2C(O)CCN2c2nc(C)cc(C(F)(F)F)c2C#N)c1, the IC50 is reported as > 10 µM.
`COc1cc2cc(C(=O)CCC(=O)O)sc2cc1OC` + Cc1cccc(N(C)C(=O)C2C(O)CCN2c2nc(C)cc(C(F)(F)F)c2C#N)c1 was tested, and the IC50 was > 10 µM.
With `COc1ccc([C@@H](O)c2cc(-c3ncnc4cc(N5CCOCC5)ccc34)c(F)cc2Cl)nn1` + Cc1cccc(N(C)C(=O)C2C(O)CCN2c2nc(C)cc(C(F)(F)F)c2C#N)c1 the IC50 was > 10 µM.
For `O=C(Nc1ccc(O)c(NS(=O)(=O)c2ccc(F)cc2)c1)c1ccc(-c2ccccc2)cc1` + Cc1cccc(N(C)C(=O)C2C(O)CCN2c2nc(C)cc(C(F)(F)F)c2C#N)c1, the IC50 was > 10 µM.

Same assay, conditions: curve of first compound; second compound 1 µM
For `C#Cc1c(F)ccc2cc(O)cc(-c3ncc4c(N5CC6CCC(C5)N6)nc(OCC56CCCN5CC(F)C6)nc4c3F)c12` (configuration not stated) + Cc1cccc(N(C)C(=O)C2C(O)CCN2c2nc(C)cc(C(F)(F)F)c2C#N)c1, the IC50 was > 10 µM.
With `C=CC(=O)N1CCN(c2nc(=O)n(-c3c(C)ccnc3C(C)C)c3nc(-c4c(O)cccc4F)c(F)cc23)C(C)C1` (configuration not stated) + Cc1cccc(N(C)C(=O)C2C(O)CCN2c2nc(C)cc(C(F)(F)F)c2C#N)c1 the IC50 was > 10 µM.
With `CC(C)n1c(=O)n(C)c2cnc3cc(F)c(-c4ccc(OCCCN5CCCCC5)nc4)cc3c21` + Cc1cccc(N(C)C(=O)C2C(O)CCN2c2nc(C)cc(C(F)(F)F)c2C#N)c1 the IC50 was > 10 µM.
`CCc1cc2c(N3CCc4c(cc(Cn5ccnc5)cc4-c4cn(C)nc4C(F)(F)F)C3=O)cc(C)nc2c(OC)n1` + Cc1cccc(N(C)C(=O)C2C(O)CCN2c2nc(C)cc(C(F)(F)F)c2C#N)c1 was tested, and the IC50 was > 10 µM.
With `CCc1cc2c(N3CCc4c(cc(Cn5ccnc5)cc4-c4cn(C)nc4C(F)(F)F)C3=O)ccnc2c(OC)n1` + Cc1cccc(N(C)C(=O)C2C(O)CCN2c2nc(C)cc(C(F)(F)F)c2C#N)c1 the IC50 was > 10 µM.
With `COc1cc2cc(C(=O)CCC(=O)O)sc2cc1OC` + Cc1cccc(N(C)C(=O)C2C(O)CCN2c2nc(C)cc(C(F)(F)F)c2C#N)c1 the IC50 was > 10 µM.
`COc1ccc([C@@H](O)c2cc(-c3ncnc4cc(N5CCOCC5)ccc34)c(F)cc2Cl)nn1` + Cc1cccc(N(C)C(=O)C2C(O)CCN2c2nc(C)cc(C(F)(F)F)c2C#N)c1 was tested, and the IC50 was > 10 µM.
In the case of `O=C(Nc1ccc(O)c(NS(=O)(=O)c2ccc(F)cc2)c1)c1ccc(-c2ccccc2)cc1` + Cc1cccc(N(C)C(=O)C2C(O)CCN2c2nc(C)cc(C(F)(F)F)c2C#N)c1, the IC50 is reported as > 10 µM.

Same assay, conditions: curve of first compound; second compound 3.16 µM
For `C#Cc1c(F)ccc2cc(O)cc(-c3ncc4c(N5CC6CCC(C5)N6)nc(OCC56CCCN5CC(F)C6)nc4c3F)c12` (configuration not stated) + Cc1cccc(N(C)C(=O)C2C(O)CCN2c2nc(C)cc(C(F)(F)F)c2C#N)c1, the IC50 was > 10 µM.
With `C=CC(=O)N1CCN(c2nc(=O)n(-c3c(C)ccnc3C(C)C)c3nc(-c4c(O)cccc4F)c(F)cc23)C(C)C1` (configuration not stated) + Cc1cccc(N(C)C(=O)C2C(O)CCN2c2nc(C)cc(C(F)(F)F)c2C#N)c1 the IC50 was > 10 µM.
`CC(C)n1c(=O)n(C)c2cnc3cc(F)c(-c4ccc(OCCCN5CCCCC5)nc4)cc3c21` + Cc1cccc(N(C)C(=O)C2C(O)CCN2c2nc(C)cc(C(F)(F)F)c2C#N)c1 was tested, and the IC50 was > 10 µM.
With `CCc1cc2c(N3CCc4c(cc(Cn5ccnc5)cc4-c4cn(C)nc4C(F)(F)F)C3=O)cc(C)nc2c(OC)n1` + Cc1cccc(N(C)C(=O)C2C(O)CCN2c2nc(C)cc(C(F)(F)F)c2C#N)c1 the IC50 was > 10 µM.
With `CCc1cc2c(N3CCc4c(cc(Cn5ccnc5)cc4-c4cn(C)nc4C(F)(F)F)C3=O)ccnc2c(OC)n1` + Cc1cccc(N(C)C(=O)C2C(O)CCN2c2nc(C)cc(C(F)(F)F)c2C#N)c1 the IC50 was > 10 µM.
For `COc1cc2cc(C(=O)CCC(=O)O)sc2cc1OC` + Cc1cccc(N(C)C(=O)C2C(O)CCN2c2nc(C)cc(C(F)(F)F)c2C#N)c1, the IC50 was > 10 µM.
`COc1ccc([C@@H](O)c2cc(-c3ncnc4cc(N5CCOCC5)ccc34)c(F)cc2Cl)nn1` + Cc1cccc(N(C)C(=O)C2C(O)CCN2c2nc(C)cc(C(F)(F)F)c2C#N)c1 was tested, and the IC50 was > 10 µM.
With `O=C(Nc1ccc(O)c(NS(=O)(=O)c2ccc(F)cc2)c1)c1ccc(-c2ccccc2)cc1` + Cc1cccc(N(C)C(=O)C2C(O)CCN2c2nc(C)cc(C(F)(F)F)c2C#N)c1 the IC50 was > 10 µM.

Same assay, conditions: curve of first compound; second compound 10 µM
With `C#Cc1c(F)ccc2cc(O)cc(-c3ncc4c(N5CC6CCC(C5)N6)nc(OCC56CCCN5CC(F)C6)nc4c3F)c12` (configuration not stated) + Cc1cccc(N(C)C(=O)C2C(O)CCN2c2nc(C)cc(C(F)(F)F)c2C#N)c1 the IC50 was > 10 µM.
In the case of `C=CC(=O)N1CCN(c2nc(=O)n(-c3c(C)ccnc3C(C)C)c3nc(-c4c(O)cccc4F)c(F)cc23)C(C)C1` (configuration not stated) + Cc1cccc(N(C)C(=O)C2C(O)CCN2c2nc(C)cc(C(F)(F)F)c2C#N)c1, the IC50 is reported as > 10 µM.
